Measurements: patent US20060069132A1, “Azolecarboxamide herbicides” (priority 2004, published 2006)

Key:
barnyardgrass [1] = experiment: Test A pre-/postemergence herbicide test; type: in vivo, Echinochloa crus-galli
Method in brief: (§1)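 Visual injury rating on a 0–100 scale (0 no effect, 100 complete control) versus untreated controls, about ten days after treatment in greenhouse. Pre: directed soil spray onto seeded sandy loam. Post: spray to runoff on plants 2–10 cm tall at one- to two-leaf stage.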

large crabgrass [2] = experiment: Test A pre-/postemergence herbicide test; type: in vivo, Digitaria sanguinalis
Method in brief: as §1

giant foxtail [3] = experiment: Test A pre-/postemergence herbicide test; type: in vivo, Setaria faberi
Method in brief: as §1

morningglory [4] = experiment: Test A pre-/postemergence herbicide test; type: in vivo, Ipomoea spp.
Method in brief: as §1

redroot pigweed = experiment: Test A pre-/postemergence herbicide test; type: in vivo, Amaranthus retroflexus
Method in brief: as §1

velvetleaf [5] = experiment: Test A pre-/postemergence herbicide test; type: in vivo, Abutilon theophrasti
Method in brief: as §1

barnyardgrass [6] = experiment: Test B pre-/postemergence herbicide test; type: in vivo, Echinochloa crus-galli; conditions: for Barnyardgrass plant response rating: postemergence, visual rating, scale 0 (no effect) to 100 (complete control)
Method in brief: (§2)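 Visual rating, 0 (no effect) to 100 (complete control), versus untreated controls after 13–15 d in greenhouse. Pre- and postemergence applications (postemergence plants 2–18 cm, 1–4 leaves); flooded paddy arm at 2-leaf stage. Compounds in non-phytotoxic solvent plus surfactant.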

Surinam grass = experiment: Test B pre-/postemergence herbicide test; type: in vivo, Urochloa decumbens; conditions: for Surinam Grass plant response rating: postemergence, visual rating, scale 0 (no effect) to 100 (complete control)
Method in brief: (§3)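 Seeds were planted and treated preemergence with compounds formulated in a non-phytotoxic solvent mixture containing surfactant, while plants at the 1- to 4-leaf stage (2 to 18 cm) received postemergence sprays. Flooded paddy plants were grown to the 2-leaf stage. After 13 to 15 days in a greenhouse, injury was visually rated 0–100 against untreated controls.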

cocklebur = experiment: Test B pre-/postemergence herbicide test; type: in vivo, Xanthium strumarium; conditions: for Cocklebur plant response rating: postemergence, visual rating, scale 0 (no effect) to 100 (complete control)
Method in brief: as §2

corn = experiment: Test B pre-/postemergence herbicide test; type: in vivo, Zea mays; conditions: for Corn plant response rating: postemergence, visual rating, scale 0 (no effect) to 100 (complete control)
Method in brief: as §3

large crabgrass [7] = experiment: Test B pre-/postemergence herbicide test; type: in vivo, Digitaria sanguinalis; conditions: for Crabgrass, Large plant response rating: postemergence, visual rating, scale 0 (no effect) to 100 (complete control)
Method in brief: as §3

giant foxtail [8] = experiment: Test B pre-/postemergence herbicide test; type: in vivo, Setaria faberi; conditions: for Foxtail, Giant plant response rating: postemergence, visual rating, scale 0 (no effect) to 100 (complete control)
Method in brief: as §3

lambsquarters = experiment: Test B pre-/postemergence herbicide test; type: in vivo, Chenopodium album; conditions: for Lambsquarters plant response rating: postemergence, visual rating, scale 0 (no effect) to 100 (complete control)
Method in brief: as §3

morningglory [9] = experiment: Test B pre-/postemergence herbicide test; type: in vivo, Ipomoea coccinea; conditions: for Morningglory plant response rating: postemergence, visual rating, scale 0 (no effect) to 100 (complete control)
Method in brief: as §2

pigweed = experiment: Test B pre-/postemergence herbicide test; type: in vivo, Amaranthus retroflexus; conditions: for Pigweed plant response rating: postemergence, visual rating, scale 0 (no effect) to 100 (complete control)
Method in brief: as §3

rice [10] = experiment: Test B pre-/postemergence herbicide test; type: in vivo, Oryza sativa; conditions: preemergence
Method in brief: as §3

velvetleaf [11] = experiment: Test B pre-/postemergence herbicide test; type: in vivo, Abutilon theophrasti; conditions: for Velvetleaf plant response rating: postemergence, visual rating, scale 0 (no effect) to 100 (complete control)
Method in brief: as §3

blackgrass = experiment: Test B postemergence herbicide test; type: in vivo, Alopecurus myosuroides; conditions: postemergence, visual rating, scale 0 (no effect) to 100 (complete control)
Method in brief: (§4)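 Visual ratings, 0 (no effect) to 100 (complete control), made versus controls after 13–15 d greenhouse. Paddy plants treated at 2-leaf stage; postemergence plants at 1- to 4-leaf stage, 2–18 cm tall.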

wheat = experiment: Test B postemergence herbicide test; type: in vivo, Triticum aestivum; parameters: key to Wheat plant response rating: 0 = no effect, 100 = complete control; conditions: postemergence, visual rating, scale 0 (no effect) to 100 (complete control)
Method in brief: (§5)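 Treated at 2-leaf (paddy) or 1–4-leaf, 2–18 cm (postemergence); greenhouse 13–15 d; visual score vs control, 0 none to 100 complete control; dash = not tested.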

wild oat = experiment: Test B postemergence herbicide test; type: in vivo, Avena fatua; conditions: postemergence, visual rating, scale 0 (no effect) to 100 (complete control)
Method in brief: as §5

rice [12] = experiment: Test B flooded paddy test; type: in vivo, Oryza sativa; conditions: 1000 g ai/ha, visual rating, scale 0 to 100 (0 no effect, 100 complete control), 13 to 15 days
Method in brief: as §4

[13] = tested on: small flower umbrella sedge; experiment: Test B flooded paddy test; type: in vivo, Cyperus difformis; conditions: 1000 g ai/ha, visual rating, scale 0 to 100 (0 no effect, 100 complete control), 13 to 15 days
Method in brief: as §4

ducksalad = experiment: Test B flooded paddy test; type: in vivo, Heteranthera limosa; conditions: 1000 g ai/ha, visual rating, scale 0 to 100 (0 no effect, 100 complete control), 13 to 15 days
Method in brief: as §4

barnyardgrass [14] = experiment: Test B flooded paddy test; type: in vivo, Echinochloa crus-galli; conditions: 1000 g ai/ha, visual rating, scale 0 to 100 (0 no effect, 100 complete control), 13 to 15 days
Method in brief: as §4

[15] = Postemergence, 500 g ai/ha, 0 to 100 scale, 0 no effect, 100 complete control
[16] = Postemergence, 2000 g ai/ha, 0 to 100 scale, 0 no effect, 100 complete control
[17] = Preemergence, 2000 g ai/ha, visual rating, 0 to 100 scale (0 no effect, 100 complete control)
[18] = preemergence, 500 g ai/ha, visual injury, 0 to 100 scale (0 no effect, 100 complete control)
[19] = 125 g ai/ha, 0 = no effect, 100 = complete control, preemergence
[20] = 500 g ai/ha, visual rating 0-100, 0 no effect, 100 complete control, preemergence

C#CCNC(=O)c1cccc(NC(=O)c2sc(C(C)(C)C)nc2C)c1 [Compound 203]
Barnyardgrass plant response rating (barnyardgrass [1]; [15]): 10 | Plant response rating, Barnyardgrass (barnyardgrass [1]; [16]): 30 | Barnyardgrass plant response rating (barnyardgrass [1]; [17]): 60 | Barnyardgrass plant response rating (barnyardgrass [1]; [18]): 10 | Crabgrass, Large plant response rating (large crabgrass [2]; [15]): 10 | Plant response rating, Crabgrass, Large (large crabgrass [2]; [16]): 15 | Crabgrass, Large plant response rating (large crabgrass [2]; [17]): 75 | Crabgrass, Large plant response rating (large crabgrass [2]; [18]): 50 | Foxtail, Giant plant response rating (giant foxtail [3]; [15]): 10 | Plant response rating, Foxtail, Giant (giant foxtail [3]; [16]): 20 | Foxtail, Giant plant response rating (giant foxtail [3]; [17]): 75 | Foxtail, Giant plant response rating (giant foxtail [3]; [18]): 30 | Morningglory plant response rating (morningglory [4]; [15]): 50 | Plant response rating, Morningglory (morningglory [4]; [16]): 55 | Morningglory plant response rating (morningglory [4]; [17]): 15 | Morningglory plant response rating (morningglory [4]; [18]): 10 | Pigweed plant response rating (redroot pigweed; [15]): 35 | Plant response rating, Pigweed (redroot pigweed; [16]): 80 | Pigweed plant response rating (redroot pigweed; [17]): 90 | Pigweed plant response rating (redroot pigweed; [18]): 90 | Velvetleaf plant response rating (velvetleaf [5]; [15]): 10 | Plant response rating, Velvetleaf (velvetleaf [5]; [16]): 10 | Velvetleaf plant response rating (velvetleaf [5]; [17]): 35 | Velvetleaf plant response rating (velvetleaf [5]; [18]): 15 | Barnyardgrass plant response rating (0 to 100 scale) (barnyardgrass [6]; [19]): 0 | Plant response rating, Barnyardgrass (barnyardgrass [6]; [20]): 10 | Barnyardgrass plant response rating (barnyardgrass [6]; 125 g ai/ha): 0 | Barnyardgrass plant response rating (barnyardgrass [6]; 500 g ai/ha): 0 | Surinam Grass plant response rating (0 to 100 scale) (Surinam grass; [19]): 0 | Plant response rating, Surinam Grass (Surinam grass; [20]): 0 | Surinam Grass plant response rating (Surinam grass; 125 g ai/ha): 10 | Surinam Grass plant response rating (Surinam grass; 500 g ai/ha): 20 | Cocklebur plant response rating (0 to 100 scale) (cocklebur; [19]): 0 | Plant response rating, Cocklebur (cocklebur; [20]): 10 | Cocklebur plant response rating (cocklebur; 125 g ai/ha): 0 | Cocklebur plant response rating (cocklebur; 500 g ai/ha): 10 | Corn plant response rating (0 to 100 scale) (corn; [19]): 0 | Plant response rating, Corn (corn; [20]): 0 | Corn plant response rating (corn; 125 g ai/ha): 0 | Corn plant response rating (corn; 500 g ai/ha): 10 | Crabgrass, Large plant response rating (0 to 100 scale) (large crabgrass [7]; [19]): 30 | Plant response rating, Crabgrass, Large (large crabgrass [7]; [20]): 80 | Crabgrass, Large plant response rating (large crabgrass [7]; 125 g ai/ha): 0 | Crabgrass, Large plant response rating (large crabgrass [7]; 500 g ai/ha): 10 | Foxtail, Giant plant response rating (0 to 100 scale) (giant foxtail [8]; [19]): 0 | Plant response rating, Foxtail, Giant (giant foxtail [8]; [20]): 10 | Foxtail, Giant plant response rating (giant foxtail [8]; 125 g ai/ha): 0 | Foxtail, Giant plant response rating (giant foxtail [8]; 500 g ai/ha): 10 | Lambsquarters plant response rating (0 to 100 scale) (lambsquarters; [19]): 10 | Plant response rating, Lambsquarters (lambsquarters; [20]): 30 | Lambsquarters plant response rating (lambsquarters; 125 g ai/ha): 10 | Lambsquarters plant response rating (lambsquarters; 500 g ai/ha): 50 | Morningglory plant response rating (0 to 100 scale) (morningglory [9]; [19]): 0 | Plant response rating, Morningglory (morningglory [9]; [20]): 10 | Morningglory plant response rating (morningglory [9]; 125 g ai/ha): 0 | Morningglory plant response rating (morningglory [9]; 500 g ai/ha): 30 | Pigweed plant response rating (0 to 100 scale) (pigweed; [19]): 10 | Plant response rating, Pigweed (pigweed; [20]): 90 | Pigweed plant response rating (pigweed; 125 g ai/ha): 0 | Pigweed plant response rating (pigweed; 500 g ai/ha): 10 | Rice plant response rating (0 to 100 scale) (rice [10]; 125 g ai/ha, 0 = no effect, 100 = complete control): 0 | Plant response rating, Rice (rice [10]; 500 g ai/ha, visual rating 0-100, 0 no effect, 100 complete control): 0 | Velvetleaf plant response rating (0 to 100 scale) (velvetleaf [11]; [19]): 0 | Plant response rating, Velvetleaf (velvetleaf [11]; [20]): 20 | Velvetleaf plant response rating (velvetleaf [11]; 125 g ai/ha): 0 | Velvetleaf plant response rating (velvetleaf [11]; 500 g ai/ha): 10 | Blackgrass plant response rating (blackgrass; 125 g ai/ha): 0 | Blackgrass plant response rating (blackgrass; 500 g ai/ha): 0 | Wheat plant response rating (wheat; 125 g ai/ha): 0 | Wheat plant response rating (wheat; 500 g ai/ha): 0 | Oat, Wild plant response rating (wild oat; 125 g ai/ha): 0 | Oat, Wild plant response rating (wild oat; 500 g ai/ha): 10 | Rice plant response rating (rice [12]): 0 | Sedge, Umbrella plant response rating [13]: 0 | Ducksalad plant response rating (ducksalad): 0 | Barnyardgrass plant response rating (barnyardgrass [14]): 0
